Measured values: patent US6852761B2, “Polycyclic aryl and heteroaryl substituted benzenes useful for selective inhibition of the coagulation cascade” (Pharmacia Corporation, priority 2000, dated 2005)

How the values were obtained:
[1] = biological target: T1, recombinant soluble tissue factor and recombinant human factor VIIa (TF-VIIA) (Homo sapiens, UniProt P08709); experiment: TF-VIIa Assay; type: biochemical
T1 construct: conversion of coagulation factor VII to VIIa by Xa; purchased American Diagnostica, Greenwich Conn; (factor VIIa); host or cells: soluble TF made in house in E. coli

human factor Xa = biological target: T2, human factor Xa (Homo sapiens, UniProt P00742); experiment: Xa Assay; type: biochemical
T2 construct: leads from XII to XIIa to XIa to IXa and to the conversion of X to Xa; purchased Enzyme Research Laboratories, South Bend Ind
Experimental: 0.3 nM human factor Xa and 0.15 mM N-α-Benzyloxycarbonyl-D-arginyl-L-glycyl-L-arginine-p-nitroaniline-dihydrochloride (S-2765) are added to a 96-well assay plate containing either inhibitor or buffer (50 mM Tris-HCl, pH 8.0, 100 mM NaCl, 0.1% BSA). The reaction, in a final volume of 100 ul is measured immediately at 405 nm to determine background absorbance. The plate is incubated at room temperature for 60 min, at which time the rate of hydrolysis of the substrate is measured by monitoring the reaction at 405 nm for the release of p-nitroaniline. Percent inhibition of Xa activity is calculated from OD405 nm value from the experimental and control sample.
Recombinant soluble TF, consisting of amino acids 1-219 of the mature protein sequence was expressed in E. coli and purified using a Mono Q Sepharose FPLC. Recombinant human VIIa was purchased from American Diagnostica, Greenwich Conn. and chromogenic substrate N-Methylsulfonyl-D-phe-gly-arg-p-nitroaniline was prepared by American Peptide Company, Inc., Sunnyvale, Calif. Factor Xa was obtained from Enzyme Research Laboratories, South Bend Ind., thrombin from Calbiochem, La Jolla, Calif., and trypsin and L-BAPNA from Sigma, St. Louis Mo. The chromogenic substrates S-2765 and S-2238 were purchased from Chromogenix, Sweden.

T2 sequence (P00742 235-488 limits assumed): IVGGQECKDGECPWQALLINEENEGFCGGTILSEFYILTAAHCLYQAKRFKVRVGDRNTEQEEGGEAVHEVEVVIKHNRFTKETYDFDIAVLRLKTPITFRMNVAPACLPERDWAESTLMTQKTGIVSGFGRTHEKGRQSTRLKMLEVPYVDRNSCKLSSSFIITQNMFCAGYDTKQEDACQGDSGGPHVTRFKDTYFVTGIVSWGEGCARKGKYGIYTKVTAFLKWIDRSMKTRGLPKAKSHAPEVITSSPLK
T2 sequence (P00742 41-179 limits assumed): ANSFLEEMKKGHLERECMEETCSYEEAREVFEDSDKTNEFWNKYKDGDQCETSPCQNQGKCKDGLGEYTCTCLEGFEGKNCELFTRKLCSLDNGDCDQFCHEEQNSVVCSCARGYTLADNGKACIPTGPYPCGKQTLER
T1 sequence (P08709 213-466 limits assumed): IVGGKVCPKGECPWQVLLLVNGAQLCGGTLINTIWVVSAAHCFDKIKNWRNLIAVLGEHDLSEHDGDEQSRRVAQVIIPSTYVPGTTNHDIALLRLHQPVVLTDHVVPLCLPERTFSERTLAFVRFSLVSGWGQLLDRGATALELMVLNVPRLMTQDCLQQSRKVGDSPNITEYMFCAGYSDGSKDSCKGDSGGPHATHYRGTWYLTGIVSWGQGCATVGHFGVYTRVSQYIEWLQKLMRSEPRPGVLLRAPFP
T1 sequence (P08709 61-212 limits assumed): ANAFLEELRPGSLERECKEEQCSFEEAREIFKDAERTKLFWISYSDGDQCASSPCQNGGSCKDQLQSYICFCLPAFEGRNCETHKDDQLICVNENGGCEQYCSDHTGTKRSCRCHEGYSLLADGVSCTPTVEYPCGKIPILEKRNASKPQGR
T1 sequence (P13726 33-251 partner limits assumed): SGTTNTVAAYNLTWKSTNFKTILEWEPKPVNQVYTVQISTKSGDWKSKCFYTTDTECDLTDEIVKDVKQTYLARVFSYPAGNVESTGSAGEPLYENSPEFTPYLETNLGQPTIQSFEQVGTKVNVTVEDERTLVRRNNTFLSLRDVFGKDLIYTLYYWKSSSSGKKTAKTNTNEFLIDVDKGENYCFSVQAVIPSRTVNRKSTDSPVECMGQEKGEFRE

| SMILES | IC50 [1] | IC50 (human factor Xa) |
| --- | --- | --- |
| O=C(NCC1CCNCC1)c1cc(NS(=O)(=O)Cc2ccccc2)ccc1Sc1ccccc1 [Example 1] | > 30 µM |  |
| CN(C)c1ccc(CNC(=O)c2cc(NS(=O)(=O)Cc3ccccc3)ccc2Sc2ccccc2)cc1 [Example 2] | > 30 µM | > 30 µM |
| O=C(NCc1ccncc1)c1cc(NS(=O)(=O)Cc2ccccc2)ccc1Sc1ccccc1 [Example 3] | > 30 µM | > 30 µM |
| N=C(N)c1ccc(CNC(=O)c2cc(NS(=O)(=O)Cc3ccccc3)ccc2Sc2ccccc2)cc1 [Example 4] | > 30 µM | > 30 µM |
| O=C(Cc1c(F)ccc(NS(=O)(=O)Cc2ccccc2)c1F)NCC1CCNCC1 [Example 9] | > 30 µM | > 30 µM |
| CN(C)c1ccc(CNC(=O)Cc2c(F)ccc(NS(=O)(=O)Cc3ccccc3)c2F)cc1 [Example 10] | > 30 µM |  |
| O=C(Cc1c(F)ccc(NS(=O)(=O)Cc2ccccc2)c1F)NCc1ccncc1 [Example 11] | > 30 µM |  |
| O=C(Cc1c(F)ccc(NS(=O)(=O)Cc2ccccc2)c1F)NCCCn1ccnc1 [Example 12] | > 30 µM | > 30 µM |

Next, values leading:

| IC50 [1] | IC50 (human factor Xa) | SMILES |
| --- | --- | --- |
| > 30 µM |  | N=C(N)c1cccc(CNC(=O)Cc2c(F)ccc(NS(=O)(=O)Cc3ccccc3)c2F)c1 [Example 13] |
| > 30 µM | > 30 µM | N=C(N)c1ccc(CNC(=O)Cc2c(F)ccc(NS(=O)(=O)Cc3ccccc3)c2F)cc1 [Example 14] |
| > 30 µM | > 30 µM | N=C(N)NCCCCCNC(=O)Cc1c(F)ccc(NS(=O)(=O)Cc2ccccc2)c1F [Example 15] |
|  | > 30 µM | N=C(N)c1ccc(CNC(=O)Cc2c(-c3ccccc3)ccc(NCCc3ccccc3)c2F)cc1 [Example 17] |
|  | > 30 µM | N=C(N)c1ccc(CNC(=O)Cc2c(-c3ccccc3)ccc(NCCc3ccccc3)c2O)cc1 [Example 19] |
|  | > 30 µM | COc1c(NC(C)C)ccc(-c2ccccc2)c1CC(=O)NCc1ccc(C(=N)N)cc1 [Example 22] |
